Biological target: T1, MAN2A1 (Homo sapiens, UniProt Q16706)
T1 construct: expressed in transfected cells
T1 sequence (Q16706 1-1144): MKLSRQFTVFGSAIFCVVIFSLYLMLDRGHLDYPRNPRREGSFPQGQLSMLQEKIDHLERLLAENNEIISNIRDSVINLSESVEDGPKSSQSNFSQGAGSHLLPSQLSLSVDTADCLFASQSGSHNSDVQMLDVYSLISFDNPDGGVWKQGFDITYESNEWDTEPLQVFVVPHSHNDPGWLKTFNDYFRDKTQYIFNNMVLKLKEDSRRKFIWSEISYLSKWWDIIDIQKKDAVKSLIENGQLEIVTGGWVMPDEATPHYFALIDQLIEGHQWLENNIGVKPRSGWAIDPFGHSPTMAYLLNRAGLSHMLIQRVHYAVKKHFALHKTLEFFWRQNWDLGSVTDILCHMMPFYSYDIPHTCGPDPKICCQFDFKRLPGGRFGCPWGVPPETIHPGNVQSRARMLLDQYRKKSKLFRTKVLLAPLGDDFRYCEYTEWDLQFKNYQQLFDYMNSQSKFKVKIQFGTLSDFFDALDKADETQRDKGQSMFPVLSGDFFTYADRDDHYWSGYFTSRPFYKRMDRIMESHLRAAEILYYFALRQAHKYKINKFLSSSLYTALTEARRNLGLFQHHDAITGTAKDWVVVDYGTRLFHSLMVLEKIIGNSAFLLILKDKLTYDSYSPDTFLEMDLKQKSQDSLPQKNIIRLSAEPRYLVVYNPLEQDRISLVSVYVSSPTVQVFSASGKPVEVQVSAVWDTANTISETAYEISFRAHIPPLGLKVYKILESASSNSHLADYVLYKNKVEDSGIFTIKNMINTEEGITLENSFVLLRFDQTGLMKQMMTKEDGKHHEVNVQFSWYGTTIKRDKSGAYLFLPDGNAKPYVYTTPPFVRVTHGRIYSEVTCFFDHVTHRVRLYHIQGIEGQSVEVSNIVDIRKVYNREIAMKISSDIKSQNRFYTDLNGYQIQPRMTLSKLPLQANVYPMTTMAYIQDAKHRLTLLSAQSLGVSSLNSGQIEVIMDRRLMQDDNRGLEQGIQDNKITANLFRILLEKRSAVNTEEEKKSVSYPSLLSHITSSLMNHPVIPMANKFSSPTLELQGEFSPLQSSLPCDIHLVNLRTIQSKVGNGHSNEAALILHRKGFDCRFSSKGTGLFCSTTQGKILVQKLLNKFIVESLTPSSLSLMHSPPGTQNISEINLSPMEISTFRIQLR
Assay: 4-MU-α-man activity assay in overexpressed cell lysates
Assay type: biochemical
Excerpt: Finally, selectivity versus a panel of related exo-mannosidases was investigated. We first tested inhibition against all five human GH38 retaining α-mannosidases in overexpressed cell lysates using 4-methylumbelliferyl-α-mannoside (4-MU-α-man): Golgi mannosidase II and IIx (MAN2A1 and MAN2A2), cytosolic MAN2C1 and lysosomal MAN2B1 and MAN2B2. This α-mannosidase family follows a different conformational itinerary than GH47: ^0S2 → B2,5 → ^1S5.[35] […] Of note, the presence of cobalt has been associated with conformational changes in the active site of some GH38 α-mannosidases, which might affect the binding interaction with inhibitors.[36] Nevertheless, additional research is required to explore which specific metal ion is present in the MAN2C1 active site in its in vivo state.
Trans-Cyclosulfamidate Cyclitols Males et al.
2.3 GH38 α-mannosidases and GH2 β-mannosidase inhibition studies
All chemicals were of analytical grade and purchased from Sigma-Aldrich unless stated otherwise.
Optimal stability of cell homogenates and enzyme working stocks was ensured by preparation and temporary storage on ice. Cell homogenates were prepared and used on the same day. Protein concentrations were quantified using the Pierce BCA Protein Assay Kit (ThermoFisher). Protein samples were measured in clear flat-bottom polystyrene 96 well microplates (Greiner Bio-One) using a EMax Plus Microplate Reader (Molecular Devices). Activity measurements of human GH38 α-mannosidases and bacterial β-mannosidase BtMan2A were performed in black flat-bottom polystyrene 96 wells microplates (Greiner Bio-One) and total fluorescence was measured using a Perkin Elmer LS-55 fluorescence spectrometer at wavelengths λex = 366 and λem = 445 nm, with the signal optimized for medium gain readings. The fluorescence values of each enzyme sample were corrected for the background signal of a blank sample containing no enzyme. In the case of IC50 determinations, values were normalized against a control sample containing enzyme without added inhibitor. For a single experiment, three separate curves were fitted from a technical triplicate by setting the inhibitor concentration in µM against the normalized response using GraphPad Prism 8.4.2 software. The Prism functions ‘[inhibitor] versus normalized response’ and ‘[inhibitor] versus normalized response -- variable slope’ were compared for each curve using the Akaike’s Information Criterion method to select the preferred model. Reported IC50 values are mean ± standard deviation from a biological […]
General cell culture protocol
HEK293T cells were grown to confluency at 37 °C under a 5% CO2 atmosphere in Dulbecco’s Modified Eagle’s Medium (DMEM) with a high glucose concentration (Capricorn Scientific, DMEM-HPXA) that was supplemented with 10% fetal calf serum, 0.1% (w/v) penicillin/streptomycin and 1% (v/v) Glutamax. Cells were passaged twice a week to new round polystyrene (PS) tissue culture dishes (Sarstedt) by detachment off the former culture plates by careful pipetting. To prepare cell pellets for activity measurements, plates were grown to confluency and harvested in phosphate buffered saline (PBS). After centrifugation at 1500 rpm for 5 min, the remaining PBS was aspirated and the cells were resuspended in fresh PBS. The concentration of the resulting suspension was then counted using a TC20 automated cell counter (BioRad). Aliquots were centrifuged at 2000 rpm for 5 min and the resulting cell pellets were stored at -80 °C until further use.
4-MU activity assay protocol for human GH38 α-mannosidases
HEK293T cells stably overexpressing human GH38 α-mannosidases MAN2A1, MAN2A2, MAN2B1, MAN2B2 and MAN2C1 were prepared as previously described[11] and were kindly donated by Dr. C. L.
Kuo. Homogenates were prepared by sonicating cell pellets (Sonics VibraCell, 5x1 s with 30 s interval at 20% amplitude) in 150 mM McIlvain buffer of pH 5.5 (MAN2A1, MAN2A2), pH 4.5 (MAN2B1, MAN2B2) or pH 6.7 (MAN2C1) containing either 2 mM ZnCl2 (MAN2A1, MAN2A2, MAN2B1, MAN2B2) […]

SMILES: O=S1(=O)N[C@@H]2[C@@H](O)[C@@H](O)[C@H](O)[C@@H](CO)[C@H]2O1 [compound 6, 1,6-trans-manno-cyclosulfamidate]
- activity when the buffer was enriched with CoCl2 (CoCl2): no activity
- IC50 (Zn2+): > 1000 µM

From article PMC10685318, “Trans-cyclosulfamidate mannose-configured cyclitol allows isoform-dependent inhibition of GH47 α-D-mannosidases through a bump–hole strategy” (Chemical Science, 2023)
